Legend:
BV-2 cells = experiment: Griess assay of nitrite production (NOS activity) in LPS-treated BV-2 cells; type: cell-based, murine
Method: Nitric oxide synthase (NOS) activity was measured using the Griess assay to measure nitrite production (Promega, Madison, Wis.). BV-2 cells were plated at 5×10^4 cells/well in 24-well plates, allowed to reach 90% confluence, and incubated +/−LPS (10 ng/ml)+/−AE1-329 (1 nM-1 μM) or vehicle for 24 h. […] cell culture medium and nitrite standards ([…]) were transferred to a 96-well plate and mixed with 50 μl sulphanilamide solution and 50 μl NED solution. After a 10 min incubation at room temperature, absorbance was read at 530 nm on a SpectraMax M5 plate reader (Molecular Devices, Sunnyvale, Calif.). Experiments were repeated in triplicate.
Inflammatory stimuli such as LPS can activate microglia through the CD14/TLR4 receptor complex and induce the expression of pro-inflammatory enzymes and cytokines (Fassbender et al., 2004; Walter et al., 2007). LPS-induced inflammatory responses were tested in the absence and presence of pharmacologic activation of EP4 receptor with the selective EP4 agonist AE1-329. BV-2 cells were treated with LPS (10 ng/ml) in the presence or absence of the selective EP4 agonist AE1-329 (1 μM) for 6 h, and pro-inflammatory gene expression was measured using qPCR (see FIG. 2). […] In FIG. 2D, EP4 regulation of iNOS activity was investigated.

[1] = tested on: plasma cytokine and chemokine levels; experiment: plasma multi-analyte analysis in LPS-stimulated mice; type: in vivo, mouse; settings: LPS 5 mg/kg i.p., AE1-329 300 μg/kg s.c.
Method: The murine in vivo studies were conducted in accordance with the National Institutes of Health guidelines for the use of experimental animals and protocols were approved by the Institutional Animal Care and Use Committee. C57B6 EP4 floxed mice (Schneider et al., 2004) were kindly provided by Drs. Richard and Matthew Breyer (Vanderbilt University School of Medicine, Nashville, Tenn.), and C57B6 Cd11bCre mice (Boillee et al., 2006) were kindly provided by Dr. G. Kollias (Alexander Fleming Biomedical Sciences Research Center, Vari, Greece) and Dr. Donald Cleveland (UCSD, San Diego, Calif.). All mice were housed in an environment controlled for lighting (12 hour light/dark cycle), temperature, and humidity, with food and water available ad libitum. Cd11bCre:EP4f/f and Cd11bCre:EP4+/+ mice were generated by serial crosses of C57B6 Cd11bCre and EP4f/f and EP4+/+ lines. Male Cd11bCre: EP4f/f and Cd11bCre: EP4+/+ mice were treated with either saline or LPS (5 mg/kg intraperitoneally: n=5-8 per group, 13 months of age). 24 hours after injection, mice were euthanized and brain tissue was harvested and frozen at −80° C. For pharmacological experiments, C57B6 male mice (Jackson Laboratories, Bar Harbor, Me.; n=7 or 8 per group) received an injection of saline or LPS (5 mg/kg, i.p.+/−vehicle or AE1-329 ([…]) (Qin et al., 2007; Nagamatsu et al., 2006). Mice were euthanized 6 hours later, and brain tissue was harvested and frozen at −80° C. For collection of plasma, C57B6 male mice (n=5 per group) received an injection of saline or LPS (5 mg/kg, i.p.)+/−AE1-329 ([…].) or vehicle. […] Plasma was collected after centrifugation at 1000×g for 10 min at 4° C. and frozen at −80° C.
Plasma was analyzed using the Rodent MAP™ Antigens, Version 2.0 multi-analyte profile (Rules Based Medicine, Austin, Tex.) that screens a total of 59 blood secreted proteins using multiplex fluorescent immunoassay.
Data are presented as mean±standard error of the mean and analyzed using analysis of variance or Student's t test. Prism software (GraphPad Software, Inc. San Diego, Calif.) was used for statistical analyses. Data for Griess assays and quantitative Western analyses were analyzed using one-way or two-way ANOVA, followed by Newman-Keuls multiple comparison or Bonferroni posttest analysis, respectively. For plasma multi-analyte analysis, the concentrations of the 15 plasma proteins that reached statistical significance between LPS+vehicle versus LPS+AE1-329 cohorts were transformed to relative concentrations (Median Z-score). Cluster analysis (Gene Cluster3.0, University of Tokyo, Tokyo and Java TreeView 1.0.13, Alok Saldanda, Calif.) produced a separation of samples according to treatment group and protein levels in plasma. […]

COCc1ccccc1CC[C@H](O)/C=C/[C@H]1[C@H](O)CC(=O)[C@@H]1SCCCSCC(=O)O [AE1-329]
LPS-induced NO production, dose response (BV-2 cells; BV-2 cells, 1, 10, 100 and 1000 nM AE1-329, 24 hours): dose-dependently reduced NO production | nitrite concentration (BV-2 cells; BV-2 cells, LPS 10 ng/ml + 10 nM AE1-329, 24 hours (LPS alone 21.76 μM)): 6.57 µM | decrease of LPS-induced NO production (nitrite) (BV-2 cells; BV-2 cells, LPS 10 ng/ml, 10 nM AE1-329, 24 hours): 68.9% | plasma levels of IL-10 ([1]; 3 hours): significantly increased plasma levels | plasma levels of TNF-α, IL-1α, eotaxin, MDC, MIP-1α, MIP-1β, MIP-1γ, MIP-2, MCP-1, MCP-3 and MCP-5 ([1]; 3 hours): significantly decreased levels | plasma myeloperoxidase ([1]; 3 hours): reduced secreted levels | plasma levels of IL-6 and LIF ([1]; printed 'at 6 h'): trend towards decreased levels

Source: US20120283293A1, “Methods of neuroprotection involving Prostaglandin E2 EP4 (PGE2 EP4) receptor activation” (The Board of Trustees of the Leland Stanford Junior …, priority 2011, published 2012)
